We go through 1 molecule from paper PMC6275946 (ACS Omega, 2018).

The target in assay [1] is SHP2 (Src-homology-2-domain-containing PTP 2) (Homo sapiens, UniProt Q06124). As to the kind of experiment: LC-MS/MS of covalent cysteine labeling. Format: biochemical.
Assay [2] concerns the target T1, SHP1 (Src-homology-2-domain containing protein tyrosine phosphatase 1) (Homo sapiens, UniProt P29350).
T1 sequence (P29350 244-515 limits assumed): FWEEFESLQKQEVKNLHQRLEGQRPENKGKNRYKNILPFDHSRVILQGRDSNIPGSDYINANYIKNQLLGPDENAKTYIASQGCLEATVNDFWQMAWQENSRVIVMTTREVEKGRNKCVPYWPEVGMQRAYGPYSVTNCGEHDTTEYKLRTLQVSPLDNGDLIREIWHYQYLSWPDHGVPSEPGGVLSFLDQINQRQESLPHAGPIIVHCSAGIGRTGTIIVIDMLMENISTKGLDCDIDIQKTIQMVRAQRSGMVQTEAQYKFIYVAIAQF
Briefly: pNPP phosphatase assay, […] compound, […] h preincubation at […] °C. Format: biochemical.

The structures appear in SMILES notation.

SHP2 (Src-homology-2-domain-containing PTP 2), sequence (Q06124 1-541): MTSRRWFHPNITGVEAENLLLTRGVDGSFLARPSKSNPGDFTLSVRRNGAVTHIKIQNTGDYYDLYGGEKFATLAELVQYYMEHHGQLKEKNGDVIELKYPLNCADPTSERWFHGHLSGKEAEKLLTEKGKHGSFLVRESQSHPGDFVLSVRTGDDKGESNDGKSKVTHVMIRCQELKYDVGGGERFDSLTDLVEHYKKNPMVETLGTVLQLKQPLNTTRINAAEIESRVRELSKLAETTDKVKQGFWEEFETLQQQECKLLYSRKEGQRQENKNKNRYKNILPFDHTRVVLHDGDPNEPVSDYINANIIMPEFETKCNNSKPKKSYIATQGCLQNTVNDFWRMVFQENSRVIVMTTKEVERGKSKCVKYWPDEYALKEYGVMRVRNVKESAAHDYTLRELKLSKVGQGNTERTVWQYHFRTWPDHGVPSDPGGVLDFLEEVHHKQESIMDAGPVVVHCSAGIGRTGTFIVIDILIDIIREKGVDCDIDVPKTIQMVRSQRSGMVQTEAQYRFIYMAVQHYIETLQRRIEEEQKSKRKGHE

As to `C=CC(=O)Nc1ccnc2ccccc12` [compound 12, N-(Quinolin-4-yl)prop-2-enamide], in assay [1], the IC50 is around 35 µM. In addition, the “pNPP phosphatase assay, 50 μM compound, 4 h preincubation at 37 °C” value in assay [2] was “the only two human PTPs that have cysteine at this position, SHP2 and SHP1, are sensitive to inhibition”.

Usually IC50 stands for the point on the concentration scale where inhibition reaches its midpoint. Read a low IC50 as higher potency.
